Where two headings read alike, the source gives them in different places.
Tested on: C57BL/6N mice
Details: TPHP-H group, liver
[1] = adduct [M+Na]+, first of two TG 52:3 lines
[2] = adduct [M+Na]+, second of two TG 52:3 lines

## O=P(Oc1ccccc1)(Oc1ccccc1)Oc1ccccc1 [TPHP, triphenyl phosphate]
Adduct [M+H]+
  Z-score of CAR 6:0: 0.97
  Z-score of CAR 10:0: 0.72
  Z-score of CAR 12:0: 0.32
  Z-score of CAR 16:2: 1.03
  Z-score of CAR 18:2: 1.01
  Z-score of CAR 18:4: 0.35
  Z-score of CAR 20:4: 0.29
  Z-score of NAE 14:0: -0.67
  Z-score of NAE 20:5: -0.01
  Z-score of PC 40:6: -0.91
  Z-score of PS 36:4: 0.46
  Z-score of SM 27:5;O2: 0.61
  Z-score of SM 28:3;O3: 0.70
  Z-score of SM 31:3;O3: -0.94
  Z-score of SM 41:2;O2: 0.44
  average intensity of CAR 6:0: 3598107
  average intensity of CAR 10:0: 1728654
  average intensity of CAR 12:0: 2142093
  average intensity of CAR 16:2: 3030917
  average intensity of CAR 18:2: 20111001
  average intensity of CAR 18:4: 9217007
  average intensity of CAR 20:4: 30801597
  average intensity of NAE 14:0: 23845
  average intensity of NAE 20:5: 31668356
  average intensity of PC 40:6: 6977163
  average intensity of PS 36:4: 1402007
  average intensity of SM 27:5;O2: 18765822
  average intensity of SM 28:3;O3: 1926974
  average intensity of SM 31:3;O3: 284040
  average intensity of SM 41:2;O2: 8959905
Adduct [M+NH4]+
  Z-score of BMP 25:4: -0.92
  Z-score of BMP 30:5: -0.72
  Z-score of BMP 38:4: -0.80
  Z-score of PG 21:2: -0.95
  Z-score of PI 39:10: -0.92
  Z-score of TG 48:11: -0.82
  Z-score of TG 55:4: 1.02
  average intensity of BMP 25:4: 4738753
  average intensity of BMP 30:5: 17597
  average intensity of BMP 38:4: 940807
  average intensity of PG 21:2: 816725
  average intensity of PI 39:10: 61034
  average intensity of TG 48:11: 5429634
  average intensity of TG 55:4: 11320635
Adduct [M+Na]+
  Z-score of Cer 42:1;O2: -0.92
  Z-score of Cer 64:6;O2: 0.66
  Z-score of DG 19:1: -0.58
  Z-score of DG 26:5: -0.58
  Z-score of DG 26:6: -0.75
  Z-score of PC 29:5: -0.84
  Z-score of PC 38:6: -0.76
  Z-score of PC 42:9: -0.79
  Z-score of PS 40:7: 0.85
  Z-score of TG 52:2: 0.76
  Z-score of TG 52:4: 0.88
  average intensity of Cer 42:1;O2: 679331
  average intensity of Cer 64:6;O2: 17434974
  average intensity of DG 19:1: 4218
  average intensity of DG 26:5: 1190306
  average intensity of DG 26:6: 269918
  average intensity of PC 29:5: 1903378
  average intensity of PC 38:6: 3451074
  average intensity of PC 42:9: 130359
  average intensity of PS 40:7: 5213900
  average intensity of TG 52:2: 10933392
  average intensity of TG 52:4: 3390540
[1]
  Z-score of TG 52:3: 0.89
  average intensity of TG 52:3: 1451015
[2]
  Z-score of TG 52:3: 0.90
  average intensity of TG 52:3: 11832628
Adduct [M-H]-
  Z-score of Cer 40:1;O2: -0.86
  Z-score of Cer 41:1;3O(2OH): -0.76
  Z-score of Cer 42:1;3O(2OH): -0.75
  Z-score of Cer 43:1;3O(2OH): -0.75
  Z-score of FA 10:1: -0.63
  Z-score of FA 14:2: 0.87
  Z-score of FA 16:2;O: 0.12
  Z-score of FA 19:2;O2: 0.47
  Z-score of PG 34:2: -0.59
  Z-score of PG 44:12: -0.58
  Z-score of PI 36:3: -0.62
  Z-score of PI 38:4: 0.28
  average intensity of Cer 40:1;O2: 112540
  average intensity of Cer 41:1;3O(2OH): 650455
  average intensity of Cer 42:1;3O(2OH): 109690
  average intensity of Cer 43:1;3O(2OH): 95819
  average intensity of FA 10:1: 124984
  average intensity of FA 14:2: 2337946
  average intensity of FA 16:2;O: 718403
  average intensity of FA 19:2;O2: 6586718
  average intensity of PG 34:2: 89164
  average intensity of PG 44:12: 16526
  average intensity of PI 36:3: 224637
  average intensity of PI 38:4: 36494581

From PMC12010937, “Evaluation of FXR Activity in Pollutants Identified in Sewage Sludge and Subsequent in Vitro and in Vivo Characterization of Metabolic Effects of Triphenyl Phosphate” (Environmental Health Perspectives, 2025)
